Where no end group is shown, it is not given here. The star is where a group is joined. FITC = O=C1OC2(c3ccc(O)cc3Oc3cc(O)ccc32)c2ccc(NC(=S)*)cc21
How the values were obtained:
IRS1 = molecular target: T1, IRS1 (Homo sapiens, UniProt P35568); experiment: Effect of AF1 peptide on IRS1 ubiquitination in HEK293T cells; assay type: cell-based
T1 sequence (P35568 1-1242): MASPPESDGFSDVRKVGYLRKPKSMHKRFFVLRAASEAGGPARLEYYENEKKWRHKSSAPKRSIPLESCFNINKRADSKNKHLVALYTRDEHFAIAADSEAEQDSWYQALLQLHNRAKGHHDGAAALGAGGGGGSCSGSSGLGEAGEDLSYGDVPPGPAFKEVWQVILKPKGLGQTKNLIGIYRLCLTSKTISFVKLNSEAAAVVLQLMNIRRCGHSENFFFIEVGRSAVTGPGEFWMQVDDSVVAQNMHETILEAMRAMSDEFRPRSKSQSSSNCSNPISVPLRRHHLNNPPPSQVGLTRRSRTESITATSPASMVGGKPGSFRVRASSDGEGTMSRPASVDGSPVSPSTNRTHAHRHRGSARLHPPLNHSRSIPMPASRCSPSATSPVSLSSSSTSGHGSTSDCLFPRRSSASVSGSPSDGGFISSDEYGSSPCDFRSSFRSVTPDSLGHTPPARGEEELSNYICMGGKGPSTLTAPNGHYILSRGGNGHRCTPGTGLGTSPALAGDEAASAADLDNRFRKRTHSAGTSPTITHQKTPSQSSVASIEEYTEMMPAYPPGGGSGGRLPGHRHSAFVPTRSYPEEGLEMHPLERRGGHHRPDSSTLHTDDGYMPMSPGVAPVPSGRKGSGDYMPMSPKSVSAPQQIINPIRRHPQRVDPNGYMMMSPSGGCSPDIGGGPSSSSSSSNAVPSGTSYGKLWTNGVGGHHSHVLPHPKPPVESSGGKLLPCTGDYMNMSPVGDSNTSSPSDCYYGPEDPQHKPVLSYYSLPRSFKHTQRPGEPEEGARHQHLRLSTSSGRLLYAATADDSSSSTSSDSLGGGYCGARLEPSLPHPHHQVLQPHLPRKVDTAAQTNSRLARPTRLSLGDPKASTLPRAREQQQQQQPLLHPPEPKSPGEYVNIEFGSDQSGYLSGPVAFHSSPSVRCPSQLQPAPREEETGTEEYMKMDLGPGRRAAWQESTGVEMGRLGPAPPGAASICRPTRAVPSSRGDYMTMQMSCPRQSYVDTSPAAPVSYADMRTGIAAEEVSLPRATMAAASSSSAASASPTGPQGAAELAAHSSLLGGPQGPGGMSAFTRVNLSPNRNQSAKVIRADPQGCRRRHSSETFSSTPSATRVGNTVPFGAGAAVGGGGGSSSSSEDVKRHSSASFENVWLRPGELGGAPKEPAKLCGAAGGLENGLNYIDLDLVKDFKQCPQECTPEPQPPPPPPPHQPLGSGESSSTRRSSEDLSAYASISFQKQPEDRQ
Source text: Co-immunoprecipitation and Western blotting analysis. […] Protein bands were detected using a ChemiDoc image system.

[1] = system: primary mouse hepatocytes; experiment: Hepatic glucose production (HGP) in primary hepatocytes upon glucagon treatment; assay type: cell-based; conditions: WT primary hepatocytes
Description: Hepatic glucose production. The primary mouse hepatocytes were isolated from 8-12-week-old male mice. Cells were resuspended in DMEM medium (2% FBS and 1% penicillin-streptomycin) for 3 h and cultured in HGP buffer (118 mM NaCl, 2.5 mM CaCl2, 4.8 mM KCl, 25 mM NaHCO3, 1.1 mM KH2PO4, 1.2 mM MgSO4, […], 0.6% BSA, 10 mM HEPES, 10 mM sodium DL-lactate, and 5 mM pyruvate, pH 7.4). Then cells were pretreated with 50 nM glucagon for 30 min, followed by 10 nM insulin treatment for 3 h, and glucose level in the medium was measured using Amplex Red Glucose Assay. The results were normalized by cell protein abundance.

“YGRKKRRQRRRTKASGMALLHEPLNRPQLKIPLERDSSKPAVYNY ({FITC}-YGRKKRRQRRRTKASGMALLHEPLNRPQLKIPLERDSSKPAVYNY) [AF1 peptide]” was tested, and the “ubiquitination of IRS1” value (IRS1) was “attenuated”, the “glucagon-induced hepatic glucose production (HGP)” value [1] was “did not impair” and the “enhancement of insulin-mediated suppression of HGP” value ([1]; under glucagon challenge) was 22%.

Source: patent publication US20260274922A1, “SYNTHETIC ESTROGEN RECEPTOR (ER)-DERIVED PEPTIDE” (THE TEXAS A&M UNIVERSITY SYSTEM, priority 2023, published 2026)
